From patent US7776847B2, “Benzisothiazoles useful for treating or preventing HCV infection” (priority 2005, dated 2010) come the findings set out here.

One may read the IC50 as the concentration that gives 50% inhibition.

This assay has as its system HCV replicon. Nature of the assay: HCV replicon luciferase reporter assay. It counts as cell-based. As to conditions: Hepatitis C virus, Table 5; read-out: IC50. Here is the method:
The inhibitory activity of certain exemplary compounds of the invention was confirmed using an HCV replicon assay. The HCV replicon can include such features as the HCV IRES, the HCV 3′ untranslated region, selected HCV genes encoding HCV polypeptides, selectable markers, and a reporter gene such as luciferase, GFP, etc. In the assay, actively dividing replicon-comprising cells were seeded at a density of between about 5,000 and 7,500 cells/well onto 96 well plates (about 90 μl of cells per well) and incubated at 37° C. and 5% CO2 for 24 hours. Then, the test compound (in a volume of about 10 μL) was added at various concentrations to each well and the cells were incubated for an additional 24-48 hours. The cells were harvested, and HCV replication or translation was monitored via a reporter assay, e.g., a luciferase reporter assay. The media was aspirated from each cell and Bright-Glo ([…].) luciferase assay reagents were added to each well according to the manufacturer's instructions. In this assay, the amount of test compound that yielded a 50% reduction in luciferase activity (IC50) was determined.
Take `COc1ccc(NCCCNc2nsc3ccccc23)nc1` [Compound 282, N^1-(benzo[d]isothiazol-3-yl)-N^3-(5-methoxypyridin-2-yl)propane-1,3-diamine]: the IC50 was under 5 µM.

`COc1cccc(NCCCNc2nsc3ccccc23)n1` [Compound 283, N^1-(benzo[d]isothiazol-3-yl)-N^3-(6-methoxypyridin-2-yl)propane-1,3-diamine]: the IC50 was under 5 µM.

Consider `COC(=O)c1cnc(NCCCNc2nsc3ccccc23)cc1C(F)(F)F` [Compound 284, methyl 6-(3-(benzo[d]isothiazol-3-ylamino)propylamino)-4-(trifluoromethyl)nicotinate], for which the IC50 is under 5 µM.

Regarding `COc1ccc(C(=O)NCCCNc2nsc3ccccc23)cc1OC1CCCC1` [Compound 286, N-(3-(benzo[d]isothiazol-3-ylamino)propyl)-3-(cyclopentyloxy)-4-methoxybenzamide], the IC50 was under 5 µM.

On to `Brc1ccc(CNCCCNc2nsc3ccccc23)cc1` [Compound 287, N^1-(benzo[d]isothiazol-3-yl)-N^3-(4-bromobenzyl)propane-1,3-diamine], for which the IC50 is under 5 µM.

On to `CCCCc1ccc(CNCCCNc2nsc3ccccc23)cc1` [Compound 288, N^1-(benzo[d]isothiazol-3-yl)-N^3-(4-butylbenzyl)propane-1,3-diamine], for which the IC50 was under 5 µM.

In the case of `O=C(NCCCNc1nsc2ccccc12)c1ccc(Br)cc1` [Compound 289, N-(3-(benzo[d]isothiazol-3-ylamino)propyl)-4-bromobenzamide], the IC50 is under 5 µM.

`CCCNc1ccc(C(=O)NCCCNc2nsc3ccccc23)cc1` [Compound 290, N-(3-(benzo[d]isothiazol-3-ylamino)propyl)-4-(propylamino)benzamide]: the IC50 was under 5 µM.

Turning to `COc1ccc(-c2ccc(CNCCCNc3nsc4ccccc34)cc2)cc1` [Compound 291, N^1-(benzo[d]isothiazol-3-yl)-N^3-((4′-methoxybiphenyl-4-yl)methyl)propane-1,3-diamine], the IC50 was under 5 µM.

Consider `COc1ccc(-c2ccc(CNCCCNc3nsc4ccccc34)cc2)cc1OC` [Compound 292, N^1-(benzo[d]isothiazol-3-yl)-N^3-((3′,4′-dimethoxybiphenyl-4-yl)methyl)propane-1,3-diamine], for which the IC50 is under 5 µM.

On to `CCCCc1ccc(CN(CCCNc2nsc3ccccc23)C(=O)c2ccccn2)cc1` [Compound 293, N-(3-(benzo[d]isothiazol-3-ylamino)propyl)-N-(4-butylbenzyl)picolinamide], for which the IC50 is under 5 µM.

With `COc1ccc(Cl)cc1-c1ccc(CNCCCNc2nsc3ccccc23)cc1` [Compound 294, N^1-(benzo[d]isothiazol-3-yl)-N^3-((5′-chloro-2′-methoxybiphenyl-4-yl)methyl)propane-1,3-diamine], the IC50 was under 5 µM.

On to `CCCCc1ccc(NCCCNc2nsc3ccccc23)cc1` [Compound 295, N^1-(benzo[d]isothiazol-3-yl)-N^3-(4-butylphenyl)propane-1,3-diamine], for which the IC50 was under 5 µM.

As for `CCN1CCN(c2ccc(C(=O)NCCCNc3nsc4ccccc34)cc2)CC1` [Compound 296, N-(3-(benzo[d]isothiazol-3-ylamino)propyl)-4-(4-ethylpiperazin-1-yl)benzamide], the IC50 is under 5 µM.

For `O=C(NCCCNc1nsc2ccccc12)c1ccc(NCc2ccccn2)cc1` [Compound 297, N-(3-(benzo[d]isothiazol-3-ylamino)propyl)-4-(pyridin-2-ylmethylamino)benzamide], the IC50 is under 5 µM.

Turning to `CC(C)Nc1ccc(C(=O)NCCCNc2nsc3ccccc23)cc1` [Compound 298, N-(3-(benzo[d]isothiazol-3-ylamino)propyl)-4-(isopropylamino)benzamide], the IC50 is under 5 µM.

Consider `Brc1cccc(CNCCCNc2nsc3ccccc23)c1` [Compound 299, N^1-(benzo[d]isothiazol-3-yl)-N^3-(3-bromobenzyl)propane-1,3-diamine], for which the IC50 is under 5 µM.

`COc1ccc(-c2cccc(CNCCCNc3nsc4ccccc34)c2)cc1` [Compound 300, N^1-(benzo[d]isothiazol-3-yl)-N^3-((4′-methoxybiphenyl-3-yl)methyl)propane-1,3-diamine]: the IC50 is under 5 µM.

Consider `COc1ccc(-c2cccc(CNCCCNc3nsc4ccccc34)c2)cc1OC` [Compound 301, N^1-(benzo[d]isothiazol-3-yl)-N^3-((4′,5′-dimethoxybiphenyl-3-yl)methyl)propane-1,3-diamine], for which the IC50 is under 5 µM.

For the molecule `COc1ccc(Cl)cc1-c1cccc(CNCCCNc2nsc3ccccc23)c1` [Compound 302, N^1-(benzo[d]isothiazol-3-yl)-N^3-((3′-chloro-6′-methoxybiphenyl-3-yl)methyl)propane-1,3-diamine], the IC50 is under 5 µM.

For the molecule `Oc1ccc(Br)cc1CNCCCNc1nsc2ccccc12` [Compound 303, 2-((3-(benzo[d]isothiazol-3-ylamino)propylamino)methyl)-4-bromophenol], the IC50 is under 5 µM.

Consider `COc1ccc(CNCCCNc2nsc3ccccc23)cc1O` [Compound 304, 5-((3-(benzo[d]isothiazol-3-ylamino)propylamino)methyl)-2-methoxyphenol], for which the IC50 is under 5 µM.

With `c1ccc(CN2CCCC(NCCCNc3nsc4ccccc34)C2)cc1` (centres unmarked) [Compound 306, N^1-(benzo[d]isothiazol-3-yl)-N^3-(1-benzylpiperidin-3-yl)propane-1,3-diamine], the IC50 is under 5 µM.

For the molecule `CC(C)(C)OC(=O)N1CCC(NCCCNc2nsc3ccccc23)CC1` [Compound 307, tert-butyl 4-(3-(benzo[d]isothiazol-3-ylamino)propylamino)piperidine-1-carboxylate], the IC50 is under 5 µM.

As to `c1cncc(CNCCCNc2nsc3ccccc23)c1` [Compound 308, N^1-(benzo[d]isothiazol-3-yl)-N^3-(pyridin-3-ylmethyl)propane-1,3-diamine], the IC50 was over 5 µM.

In the case of `c1ccc(CNCCCNc2nsc3ccccc23)nc1` [Compound 309, N^1-(benzo[d]isothiazol-3-yl)-N^3-(pyridin-2-ylmethyl)propane-1,3-diamine], the IC50 is over 5 µM.

Turning to `CCCCOc1cc(C(=O)NCCNc2nsc3ccc(NCCC)cc23)ccc1OC` [Compound 310, 3-butoxy-4-methoxy-N-(2-(5-(propylamino)benzo[d]isothiazol-3-ylamino)ethyl)benzamide], the IC50 is under 5 µM.

Turning to `O=C1NC(CNc2nsc3ccccc23)C(=O)N1c1ccc(I)cc1` (centres unmarked) [Compound 311, 5-((benzo[d]isothiazol-3-ylamino)methyl)-3-(4-iodophenyl)imidazolidine-2,4-dione], the IC50 is over 5 µM.

Turning to `COc1ccc(-c2ccccc2CNCCCNc2nsc3ccccc23)cc1` [Compound 312, N^1-(benzo[d]isothiazol-3-yl)-N^3-((4′-methoxybiphenyl-2-yl)methyl)propane-1,3-diamine], the IC50 was under 5 µM.

Turning to `COc1ccc(-c2ccccc2CNCCCNc2nsc3ccccc23)cc1OC` [Compound 313, N^1-(benzo[d]isothiazol-3-yl)-N^3-((3′,4′-dimethoxybiphenyl-2-yl)methyl)propane-1,3-diamine], the 50% inhibitory concentration (IC50) was under 5 µM.

In the case of `COc1ccc(-c2ccc(CN(CCCNc3nsc4ccccc34)C(=O)N3CCOCC3)cc2)cc1` [Compound 314, N-(3-(benzo[d]isothiazol-3-ylamino)propyl)-N-((4′-methoxybiphenyl-4-yl)methyl)morpholine-4-carboxamide], the IC50 is under 5 µM.

For `COc1ccc(-c2ccc(CN(CCCNc3nsc4ccccc34)C(=O)N(C)C)cc2)cc1` [Compound 315, 1-(3-(benzo[d]isothiazol-3-ylamino)propyl)-1-((4′-methoxybiphenyl-4-yl)methyl)-3,3-dimethylurea], the IC50 is under 5 µM.

On to `COc1ccc(-c2ccc(CN(CCCNc3nsc4ccccc34)S(=O)(=O)c3cn(C)c(C)n3)cc2)cc1` [Compound 316, N-(3-(benzo[d]isothiazol-3-ylamino)propyl)-N-((4′-methoxybiphenyl-4-yl)methyl)-1,2-dimethyl-1H-imidazole-4-sulfonamide], for which the IC50 was under 5 µM.

Take `COC(=O)c1ccc(S(=O)(=O)N(CCCNc2nsc3ccccc23)Cc2ccc(-c3ccc(OC)cc3)cc2)n1C` [Compound 317, methyl 5-(N-(3-(benzo[d]isothiazol-3-ylamino)propyl)-N-((4′-methoxybiphenyl-4-yl)methyl)sulfamoyl)-1-methyl-1H-pyrrole-2-carboxylate]: the IC50 is under 5 µM.

For the molecule `COc1ccc(-c2ccc(CN(CCCNc3nsc4ccccc34)C(=O)CC#N)cc2)cc1` [Compound 319, N-(3-(benzo[d]isothiazol-3-ylamino)propyl)-2-cyano-N-((4′-methoxybiphenyl-4-yl)methyl)acetamide], the IC50 was under 5 µM.

As to `COc1ccc(-c2ccc(CN(CCCNc3nsc4ccccc34)C(=O)CC3CCCN3)cc2)cc1` (centres unmarked) [Compound 320, N-(3-(benzo[d]isothiazol-3-ylamino)propyl)-N-((4′-methoxybiphenyl-4-yl)methyl)-2-(pyrrolidin-2-yl)acetamide], the IC50 was under 5 µM.

As for `CCCCc1ccc(C(=O)NCCCNc2n[s+]([O-])c3ccccc23)cc1` (centres unmarked) [Compound 321, 4-butyl-N-{3-[(1-oxido-1,2-benzisothiazol-3-yl)amino]propyl}benzamide], the IC50 is over 5 µM.

`CCCCc1ccc(C(=O)NCCCNC2=NS(=O)(=O)c3ccccc32)cc1` [Compound 322, 4-butyl-N-{3-[(1,1-dioxido-1,2-benzisothiazol-3-yl)amino]propyl}benzamide]: the IC50 is over 5 µM.
